According to US12662489B2 (Sitryx Therapeutics Limited, priority 2023, dated 2026):

Assays:
[1] = target: T1, MTHFD1 recombinant human enzyme (Homo sapiens, UniProt P11586); experiment: MTHFD1 inhibition assay (NAD(P)H-Glo luminescence); conditions: MTHFD1 IC50, recombinant human enzyme 200 nM, NADP, band
T1 sequence (P11586 2-291 limits assumed): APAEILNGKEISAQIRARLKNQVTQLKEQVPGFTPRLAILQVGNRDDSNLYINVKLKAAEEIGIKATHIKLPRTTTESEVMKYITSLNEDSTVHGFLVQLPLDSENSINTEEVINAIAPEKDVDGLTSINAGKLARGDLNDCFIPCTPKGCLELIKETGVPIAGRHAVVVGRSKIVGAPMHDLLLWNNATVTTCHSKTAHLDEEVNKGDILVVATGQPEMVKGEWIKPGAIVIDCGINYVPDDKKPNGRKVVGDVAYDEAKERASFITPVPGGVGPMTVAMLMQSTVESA

[2] = target: T2, MTHFD2 recombinant human enzyme (Homo sapiens, UniProt P13995); experiment: MTHFD2 inhibition assay (NAD(P)H-Glo luminescence); conditions: for MTHFD1/MTHFD2 IC50 ratio: selectivity of MTHFD2 inhibition over MTHFD1, band
T2 sequence (P13995 36-350): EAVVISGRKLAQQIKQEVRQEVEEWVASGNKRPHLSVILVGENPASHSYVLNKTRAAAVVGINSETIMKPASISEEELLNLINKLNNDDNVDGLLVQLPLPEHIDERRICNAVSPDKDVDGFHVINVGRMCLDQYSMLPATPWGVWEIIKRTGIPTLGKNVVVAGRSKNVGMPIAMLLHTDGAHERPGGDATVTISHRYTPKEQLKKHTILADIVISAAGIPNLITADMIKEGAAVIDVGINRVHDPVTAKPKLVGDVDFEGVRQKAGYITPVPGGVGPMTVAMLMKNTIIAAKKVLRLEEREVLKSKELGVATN

human CD4+ T cells = experiment: Human CD4+ T-cell proliferation assay (CFSE, CD3/28 beads); conditions: read-out: Proliferation IC50

Row | IC50 [1] [nM] | IC50 [2] [nM] | MTHFD1/MTHFD2 IC50 ratio [2] | SMILES | IC50 (human CD4+ T cells) [nM]
1 | 1000 to 5000 | 10 to 100 | J (>30) | COC[C@H]1CN(c2cc(Cl)c3c4c(c(=O)oc3c2C)CN(C(=O)c2cc(F)c(C(=O)NS(=O)(=O)N3CCCC3)cc2OC)CC4)CCN1C [Example 319, (R)-4-(10-chloro-8-(3-(methoxymethyl)-4-methylpiperazin-1-yl)-7-methyl-5-oxo-1,3,4,5-tetrahydro-2H-chromeno[3,4-c]pyridine-3-carbonyl)-2-fluoro-5-methoxy-N-(pyrrolidin-1-ylsulfonyl)benzamide] | 100 to 1000
2 | 1000 to 5000 | 10 to 100 | H (>9.0 to 30) | COC[C@H]1CN(c2cc(C)c3c4c(c(=O)oc3c2C)CN(C(=O)c2cc(OC3CCCC3)c(C(=O)NS(=O)(=O)C3(C)CC3)c(C(F)(F)F)c2)CC4)CCN1C [Example 128, (R)-2-(cyclopentyloxy)-4-(8-(3-(methoxymethyl)-4-methylpiperazin-1-yl)-7,10-dimethyl-5-oxo-1,3,4,5-tetrahydro-2H-chromeno[3,4-c]pyridine-3-carbonyl)-N-((1-methylcyclopropyl)sulfonyl)-6-(trifluoromethyl)benzamide] | 1000 to 5000
3 | 1000 to 5000 | 1 to 10 | J (>30) | COC[C@H]1CN(c2cc(C)c3c4c(c(=O)oc3c2C)CN(C(=O)c2cc(OC)c(C(=O)NS(=O)(=O)N3CCCC3)cc2Cl)CC4)CCN1C [Example 329, (R)-5-chloro-2-methoxy-4-(8-(3-(methoxymethyl)-4-methylpiperazin-1-yl)-7,10-dimethyl-5-oxo-1,3,4,5-tetrahydro-2H-chromeno[3,4-c]pyridine-3-carbonyl)-N-(pyrrolidin-1-ylsulfonyl)benzamide] | 100 to 1000
4 | 1000 to 5000 | 10 to 100 | H (>9.0 to 30) | COC[C@H]1CN(c2cc(C)c3c4c(c(=O)oc3c2C)CN(C(=O)c2ccc(C(=O)NS(=O)(=O)N3CC5CCCCC5C3)cc2)CC4)CCN1C (stereo partly drawn) [Example 211, 4-(8-((R)-3-(methoxymethyl)-4-methylpiperazin-1-yl)-7,10-dimethyl-5-oxo-1,3,4,5-tetrahydro-2H-chromeno[3,4-c]pyridine-3-carbonyl)-N-((octahydro-2H-isoindol-2-yl)sulfonyl)benzamide] | 1000 to 5000
5 | 1000 to 5000 | 1 to 10 | J (>30) | CCc1cc(N2CCN(C)[C@@H](COC)C2)c(C)c2oc(=O)c3c(c12)CCN(C(=O)c1cc(N(C)C)c(C(=O)NS(=O)(=O)N2CCCC2)cc1F)C3 [Example 245, (R)-2-(dimethylamino)-4-(10-ethyl-8-(3-(methoxymethyl)-4-methylpiperazin-1-yl)-7-methyl-5-oxo-1,3,4,5-tetrahydro-2H-chromeno[3,4-c]pyridine-3-carbonyl)-5-fluoro-N-(pyrrolidin-1-ylsulfonyl)benzamide] | 30 to 100
6 | 1000 to 5000 | 10 to 100 | J (>30) | COC[C@H]1CN(c2cc(C)c3c4c(c(=O)oc3c2C)CN(C(=O)c2cc(N(C)C)c(C(=O)NS(=O)(=O)C3(C)CC3)cc2Cl)CC4)CCN1C [Example 151, (R)-5-chloro-2-(dimethylamino)-4-(8-(3-(methoxymethyl)-4-methylpiperazin-1-yl)-7,10-dimethyl-5-oxo-1,3,4,5-tetrahydro-2H-chromeno[3,4-c]pyridine-3-carbonyl)-N-((1-methylcyclopropyl)sulfonyl)benzamide] | 100 to 1000

Second part, the molecule before the results:

Row | SMILES | IC50 [1] [nM] | IC50 [2] [nM] | MTHFD1/MTHFD2 IC50 ratio [2] | IC50 (human CD4+ T cells) [nM]
7 | COC[C@H]1CN(c2cc(C)c3c4c(c(=O)oc3c2C)CN(C(=O)c2ccc(C(=O)NS(=O)(=O)N3CCCC3)c(N3CCCC3)c2F)CC4)CCN1C [Example 98, (R)-3-fluoro-4-(8-(3-(methoxymethyl)-4-methylpiperazin-1-yl)-7,10-dimethyl-5-oxo-1,3,4,5-tetrahydro-2H-chromeno[3,4-c]pyridine-3-carbonyl)-2-(pyrrolidin-1-yl)-N-(pyrrolidin-1-ylsulfonyl)benzamide] | 10 to 100 | 1 to 10 | F (<3) | 10 to 30
8 | CCOc1cc(C(=O)N2CCc3c(c(=O)oc4c(C)c(N5CCN(C)[C@@H](COC)C5)cc(C)c34)C2)c(F)cc1C(=O)NS(=O)(=O)N1C2CCC1COC2 [Example 221, N-((3-oxa-8-azabicyclo[3.2.1]octan-8-yl)sulfonyl)-2-ethoxy-5-fluoro-4-(8-((R)-3-(methoxymethyl)-4-methylpiperazin-1-yl)-7,10-dimethyl-5-oxo-1,3,4,5-tetrahydro-2H-chromeno[3,4-c]pyridine-3-carbonyl)benzamide] | 100 to 1000 | 10 to 100 | H (>9.0 to 30) | 30 to 100
9 | COC[C@H]1CN(c2ccc3c4c(c(=O)oc3c2C)CN(C(=O)c2ccc(C(=O)NS(=O)(=O)N(C)C)c(OC3CCC3)c2F)CC4)CCN1C [Example 50, (R)-2-cyclobutoxy-N-(N,N-dimethylsulfamoyl)-3-fluoro-4-(8-(3-(methoxymethyl)-4-methylpiperazin-1-yl)-7-methyl-5-oxo-1,3,4,5-tetrahydro-2H-chromeno[3,4-c]pyridine-3-carbonyl)benzamide] | 1 to 10 | 1 to 10 | F (<3) | 1 to 10
10 | COC[C@H]1CN(c2cc(C)c3c4c(c(=O)oc3c2C)CN(C(=O)c2ccc(C(=O)NS(=O)(=O)C3(C)CC3)c(N(C)C)c2F)CC4)CCN1C [Example 136, (R)-2-(dimethylamino)-3-fluoro-4-(8-(3-(methoxymethyl)-4-methylpiperazin-1-yl)-7,10-dimethyl-5-oxo-1,3,4,5-tetrahydro-2H-chromeno[3,4-c]pyridine-3-carbonyl)-N-((1-methylcyclopropyl)sulfonyl)benzamide] | 100 to 1000 | 10 to 100 | H (>9.0 to 30) | 30 to 100
11 | CCOc1cc(C(=O)N2CCc3c(c(=O)oc4c(C)c(N5CCN(C)[C@@H](COC)C5)cc(C)c34)C2)c(F)cc1C(=O)NS(=O)(=O)N1C2CCC1CC2 [Example 218, (R)-N-((7-azabicyclo[2.2.1]heptan-7-yl)sulfonyl)-2-ethoxy-5-fluoro-4-(8-(3-(methoxymethyl)-4-methylpiperazin-1-yl)-7,10-dimethyl-5-oxo-1,3,4,5-tetrahydro-2H-chromeno[3,4-c]pyridine-3-carbonyl)benzamide] | 100 to 1000 | 10 to 100 | H (>9.0 to 30) | 30 to 100
12 | CCOc1cc(C(=O)N2CCc3c(c(=O)oc4c(C)c(N5CCN(C)[C@@H](COC)C5)cc(C)c34)C2)c(F)cc1C(=O)NS(=O)(=O)N1CCCC1 [Example 202, (R)-2-ethoxy-5-fluoro-4-(8-(3-(methoxymethyl)-4-methylpiperazin-1-yl)-7,10-dimethyl-5-oxo-1,3,4,5-tetrahydro-2H-chromeno[3,4-c]pyridine-3-carbonyl)-N-(pyrrolidin-1-ylsulfonyl)benzamide] | 100 to 1000 | 10 to 100 | H (>9.0 to 30) | 10 to 30
13 | COC[C@H]1CN(c2cc(C)c3c4c(c(=O)oc3c2C)CN(C(=O)c2cc(N(C)C)c(C(=O)NS(=O)(=O)N3C5CCC3COC5)cc2F)CC4)CCN1C [Example 256, N-((3-oxa-8-azabicyclo[3.2.1]octan-8-yl)sulfonyl)-2-(dimethylamino)-5-fluoro-4-(8-((R)-3-(methoxymethyl)-4-methylpiperazin-1-yl)-7,10-dimethyl-5-oxo-1,3,4,5-tetrahydro-2H-chromeno[3,4-c]pyridine-3-carbonyl)benzamide] | 1000 to 5000 | 1 to 10 | J (>30) | 10 to 30
14 | CNc1cc(C(=O)N2CCc3c(c(=O)oc4c(C)c(N5CCN(C)[C@@H](COC)C5)cc(C)c34)C2)c(F)cc1C(=O)NS(=O)(=O)N1CCCC1 [Example 201, (R)-5-fluoro-4-(8-(3-(methoxymethyl)-4-methylpiperazin-1-yl)-7,10-dimethyl-5-oxo-1,3,4,5-tetrahydro-2H-chromeno[3,4-c]pyridine-3-carbonyl)-2-(methylamino)-N-(pyrrolidin-1-ylsulfonyl)benzamide] | 1000 to 5000 | 10 to 100 | J (>30) | 100 to 1000
15 | CCOc1cc(C(=O)N2CCc3c(c(=O)oc4c(C)c(N5CCN(C)[C@@H](COC)C5)cc(C)c34)C2)c(Cl)cc1C(=O)NS(=O)(=O)N1CCCC1 [Example 330, (R)-5-chloro-2-ethoxy-4-(8-(3-(methoxymethyl)-4-methylpiperazin-1-yl)-7,10-dimethyl-5-oxo-1,3,4,5-tetrahydro-2H-chromeno[3,4-c]pyridine-3-carbonyl)-N-(pyrrolidin-1-ylsulfonyl)benzamide] | 100 to 1000 | 10 to 100 | J (>30) | 100 to 1000
